Measured values as given in ChEMBL document CHEMBL3804798, “Design, synthesis and anti-inflammatory effects of novel 9-O-substituted-berberine derivatives” (Medchemcomm, 2016).
The source made the active and inactive calls. The calls are words filed in the database; no cut-off is given here.

Experiments:
[1] = Cytotoxicity against mouse RAW264.7 cells assessed as cell viability at 5 uM after 48 hrs by MTT assay relative to control; assay type: cell-based; conditions: read-out: Activity
[2] = Cytotoxicity against mouse RAW264.7 cells assessed as cell viability at 10 uM after 48 hrs by MTT assay relative to control; assay type: cell-based; conditions: read-out: Activity
Danio rerio [3] = species on record: Danio rerio; test: Antiinflammatory activity in cut-tail neutrophil/macrophage double transgenic zebra fish larvae assessed as cut-tail-induced reduction in neutrophil level in wound site at 10 uM after 3 to 9 hrs by fluorescence microscopic analysis relative to control; assay type: functional, organism-based
[4] = biological target: T1, NF-kappa-B inhibitor alpha (Mus musculus) (UniProt Q9Z1E3); test: Inhibition of LPS stimulated IkappaBaplha phosphorylation in mouse RAW264.7 cells preincubated for 2 hrs followed by LPS stimulation for 6 hrs by Western blot analysis; assay type: cell-based
T1 sequence (whole entry): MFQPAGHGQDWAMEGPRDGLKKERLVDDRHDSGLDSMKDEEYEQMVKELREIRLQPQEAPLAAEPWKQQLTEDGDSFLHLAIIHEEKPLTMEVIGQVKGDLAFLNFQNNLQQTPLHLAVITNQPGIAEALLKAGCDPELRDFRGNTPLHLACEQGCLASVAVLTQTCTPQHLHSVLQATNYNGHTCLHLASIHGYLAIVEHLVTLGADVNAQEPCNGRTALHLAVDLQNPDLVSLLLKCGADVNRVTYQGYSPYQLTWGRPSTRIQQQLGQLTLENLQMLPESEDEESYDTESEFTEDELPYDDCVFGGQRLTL

RAW264.7 [5] = test: Inhibition of LPS stimulated iNOS expression in mouse RAW264.7 cells preincubated for 2 hrs followed by LPS stimulation for 6 hrs by Western blot analysis; assay type: functional, cell-based
Danio rerio [6] = species on record: Danio rerio; test: Antiinflammatory activity in cut-tail neutrophil/macrophage double transgenic zebra fish larvae assessed as cut-tail-induced migration of primitive macrophages at 10 uM after 3 to 6 hrs by fluorescence microscopic analysis relative to control; assay type: functional, organism-based
RAW264.7 [7] = test: Antiinflammatory activity against mouse RAW264.7 cells assessed as inhibition of LPS-induced NO release at 5 uM after 24 hrs by Griess assay relative to control; assay type: functional; conditions: RAW264.7, 24 h
RAW264.7 [8] = test: Antiinflammatory activity against mouse LPS-induced RAW264.7 cells assessed as inhibition of TNFalpha production at 5 uM after 24 hrs by cytokine enzyme-linked immunosorbent assay relative to control; assay type: functional; conditions: RAW264.7, 24 h
Danio rerio [9] = species on record: Danio rerio; test: Antiinflammatory activity in cut-tail neutrophil/macrophage double transgenic zebra fish larvae assessed as cut-tail-induced reduction in migration of primitive macrophages at 10 uM after 9 hrs by fluorescence microscopic analysis relative to control; assay type: functional, organism-based
RAW264.7 [10] = test: Antiinflammatory activity against mouse RAW264.7 cells assessed as inhibition of LPS-induced NO release after 24 hrs by Griess assay relative to control; assay type: functional, cell-based
RAW264.7 [11] = test: Antiinflammatory activity against mouse LPS-induced RAW264.7 cells assessed as inhibition of IL-6 production at 5 uM after 24 hrs by cytokine enzyme-linked immunosorbent assay relative to control; assay type: functional, cell-based

Row | SMILES | viability at 48 h, 5 µM [1] [%] | viability at 48 h, 10 µM [2] [%] | inhibition at 5 µM (RAW264.7 [7]) [%] | further results
1 | C=CCN(CC=C)C(=O)Oc1c(OC)ccc2cc3[n+](cc12)CCc1cc2c(cc1-3)OCO2 | 100 | 92.2 | – | –
2 | COc1ccc2cc3[n+](cc2c1OC(=O)N1CCC(N2CCCCC2)CC1)CCc1cc2c(cc1-3)OCO2 | 98.1 | 100 | – | –
3 | CCOC(=O)C1CCN(CCCOc2c(OC)ccc3cc4[n+](cc23)CCc2cc3c(cc2-4)OCO3)CC1 | 98.5 | 99.5 | – | –
4 | COc1ccc2cc3[n+](cc2c1OC(=O)N1CCN(C2CCN(C)CC2)CC1)CCc1cc2c(cc1-3)OCO2 | 107 | 102 | – | –
5 | COc1ccc2cc3[n+](cc2c1OC(=O)N1CCOCC1)CCc1cc2c(cc1-3)OCO2 | 105 | 96 | – | –
6 | COc1ccc2cc3[n+](cc2c1OCCCN1CCN(c2ccncc2)CC1)CCc1cc2c(cc1-3)OCO2 | 103 | 100 | 30.2 | Activity (Danio rerio [3]): Active; inhibition [4]: Dose-dependent effect; inhibition (RAW264.7 [5]): Dose-dependent effect; Activity (Danio rerio [6]): inactive; inhibition at 5 µM (RAW264.7 [8]): 90%; Activity (Danio rerio [9]): Active; inhibition (RAW264.7 [10]): Dose-dependent effect; inhibition (RAW264.7 [11]): Active
7 | COc1ccc2cc3[n+](cc2c1OC(=O)N1CCSCC1)CCc1cc2c(cc1-3)OCO2 | 96 | 109 | – | –
8 | COc1ccc2cc3[n+](cc2c1OC(=O)N1CCC(Cc2ccccc2)CC1)CCc1cc2c(cc1-3)OCO2 | 97.6 | 87.9 | – | –
9 | COc1ccc2cc3[n+](cc2c1OC(=O)N(C)C1CCCCC1)CCc1cc2c(cc1-3)OCO2 | 99.3 | 83.2 | 70.3 | Activity (Danio rerio [3]): Active; inhibition [4]: Dose-dependent effect; inhibition (RAW264.7 [5]): Dose-dependent effect; Activity (Danio rerio [6]): inactive; inhibition at 5 µM (RAW264.7 [8]): 70%; Activity (Danio rerio [9]): Active; inhibition (RAW264.7 [10]): Dose-dependent effect; inhibition (RAW264.7 [11]): Active
10 | CCCN(CCC)C(=O)Oc1c(OC)ccc2cc3[n+](cc12)CCc1cc2c(cc1-3)OCO2 | 101 | 93.9 | – | –
11 | COc1ccc2cc3[n+](cc2c1OC)CCc1cc2c(cc1-3)OCO2 [BERBERINE CHLORIDE] | 99.4 | 97.2 | 21.1 | –
12 | COc1ccc2cc3[n+](cc2c1OC(=O)N1CCC(N2CCN(C)CC2)CC1)CCc1cc2c(cc1-3)OCO2 | 101 | 104 | – | –
13 | COc1ccc2cc3[n+](cc2c1OC(=O)N1CCN(c2ncccn2)CC1)CCc1cc2c(cc1-3)OCO2 | 102 | 97.6 | – | –
14 | COc1ccc2cc3[n+](cc2c1OC(=O)N1CCN(c2ccccn2)CC1)CCc1cc2c(cc1-3)OCO2 | 103 | 109 | 12.9 | –
15 | CCOC(=O)N1CCN(CCCOc2c(OC)ccc3cc4[n+](cc23)CCc2cc3c(cc2-4)OCO3)CC1 | 103 | 99.1 | – | –
16 | COc1ccc2c(c1)c(CC(=O)O)c(C)n2C(=O)c1ccc(Cl)cc1 [INDOMETHACIN] | 99.8 | 99.6 | 20.8 | –
17 | CCOC(=O)N1CCN(C(=O)Oc2c(OC)ccc3cc4[n+](cc23)CCc2cc3c(cc2-4)OCO3)CC1 | 97.9 | 99.6 | 9.7 | –
